Source: publication PMC9656787, “Design, Synthesis and Biological Evaluation of Novel 1,3,5-Triazines: Effect of Aromatic Ring Decoration on Affinity to 5-HT7 Receptor” (International Journal of Molecular Sciences, 2022)

Experiments:
5-HT7 receptor = target: T1, 5-HT7 receptor (Homo sapiens, UniProt P34969); assay: Radioligand binding assay, 5-HT7 receptor; conditions: for Ki: mean ± SD, triplicate at 7 concentrations, Cheng-Prusoff, read-out: Affinity Ki 5-HT7R
T1 construct: host or cells: cell membranes from cultured cells
Description: (§1) The affinity of the studied compounds to 5-HT1A, 5-HT2A, 5-HT6, 5-HT7, and D2 receptors was evaluated by a radioligand assay, as reported previously (Table 1). Each compound was tested in triplicate at seven concentrations (from 0.1 nM to 100 µM). Inhibition constants (Ki) were calculated from the Cheng–Prusoff equation [23].
(§2) The cell culture, cell membranes, and radioligand binding assays were performed in accordance with standard protocols.

5-HT2A receptor = target: T2, 5-HT2A receptor (Homo sapiens, UniProt P28223); assay: Radioligand binding assay, 5-HT2A receptor; conditions: mean ± SD, triplicate at 7 concentrations, Cheng-Prusoff; read-out: Affinity Ki 5-HT2AR
T2 construct: host or cells: cell membranes from cultured cells
Description: as §1, §2

Danio rerio [1] = assay: In vivo cardiotoxicity (heart rate, malformations) in zebrafish embryos; conditions: 96 h
Description: (§3) The compounds were evaluated for their ecotoxicity on the Danio rerio experimental model. OECD 236 test with modifications was applied. Both compounds were found cardiotoxic within the non-toxic range, based on the heart rate measurement. For the compound 2, 5 µg/mL was found cardiotoxic (Figure 10) and for 12, 7.5 µg/mL (Figure 11). The results were confirmed by malformations observation. […] Moreover, scoliosis (S) and tail autophagy (TA) were also noted.
To determine the toxicity of the compounds, the fish embryo toxicity (FET) test was performed on zebrafish (Danio rerio) according to OECD Test Guideline 236. The collected embryos were transferred to a Petri dish with E3 medium (5 mM NaCl, 0.33 mM MgCl2, 0.33 mM CaCl2, 0.17 mM KCl; pH 7.2) and then placed in 6-well plates, 10 embryos per well. Stock solutions 2 and 12 were prepared in DMSO. In these experiments, the range of different concentrations of the solutions was prepared by dissolving stock solutions in the E3 medium each time directly before addition to the wells. The solutions were changed once daily, and the embryos were maintained in the incubator at 28.5 °C. At the end of the exposure period (96 hpf–hours postfertilization), acute toxicity was determined based on a positive outcome in any of the four visual indicators of lethality, including the coagulation of fertilized eggs, lack of somite formation, lack of detachment of the tailbud from the yolk sac and lack of heartbeat. The value of LD50 was calculated. Heartbeats were recorded to observe cardiotoxic effects. Moreover, images of the fish from each group were taken at the final time point to monitor the occurrence of developmental malformations. For the observations, a Discovery V8 Stereo optical microscope and Zeiss hardware were used. A dose-response curve was generated using Prism 8.0.1 (GraphPad Software) by fitting a sigmoid curve model to experimental data points. The concentrations of the compounds of interest causing 50% mortality (LD50) of 96 hpf larvae of Danio rerio were calculated.

CYP3A4 = CYP3A4 (Homo sapiens, UniProt P08684); assay: CYP3A4 activity (drug-drug interaction) assay; format: in vitro ADME; conditions: for inhibition activity toward CYP3A4 (in words): compound at 1 µM (concentration of ketoconazole) or lower; for %CYP3A4 activity: negative control = 100%
Description: Potential drug–drug interactions (DDIs) are an important aspect that should be considered when designing new compounds. Isoenzyme CYP3A4 is one of the varieties of enzymes responsible for xenobiotic metabolism. We evaluated active compounds 2 and 12 in terms of affinity toward this isoenzyme (Figure 8).
(§4) All assays were performed according to the protocols described previously.
Figure 8 The influence of 2 (left), 12 (right), and ketoconazole (KE) on CYP3A4 activity. Statistical significance (** p < 0.01, **** p < 0.0001) was analyzed by Graph Pad Prism 8.0.1 software using One-way ANOVA and Bonferroni’s Multiple Comparison Post Test in comparison with the negative control (100% of CYP3A4 activity). The compounds were examined in triplicate.

5-HT6 receptor = target: T3, 5-HT6 receptor (Homo sapiens, UniProt P50406); assay: Radioligand binding assay, 5-HT6 receptor; conditions: mean ± SD, triplicate at 7 concentrations, Cheng-Prusoff; read-out: Affinity Ki 5-HT6R
T3 construct: host or cells: cell membranes from cultured cells
Description: as §1, §2

Danio rerio [2] = assay: Fish embryo toxicity (FET) test, OECD 236, mortality; format: in vivo; conditions: 96 hpf larvae, 96 h incubation at 28 °C
Description: as §3
To determine the toxicity of the compounds, the fish embryo toxicity (FET) test was performed on zebrafish (Danio rerio) according to OECD Test Guideline 236. The collected embryos were transferred to a Petri dish with E3 medium (5 mM NaCl, 0.33 mM MgCl2, 0.33 mM CaCl2, 0.17 mM KCl; pH 7.2) and then placed in 6-well plates, 10 embryos per well. Stock solutions 2 and 12 were prepared in DMSO. […] At the end of the exposure period (96 hpf–hours postfertilization), acute toxicity was determined based on a positive outcome in any of the four visual indicators of lethality, including the coagulation of fertilized eggs, lack of somite formation, lack of detachment of the tailbud from the yolk sac and lack of heartbeat. The value of LD50 was calculated. Heartbeats were recorded to observe cardiotoxic effects. […]

HepG2 cell line = assay: Hepatotoxicity: HepG2 cell line viability; format: cell-based; conditions: 72 h incubation; for cell viability (in words): HepG2, 100 µM; for effect on HepG2 cells at lower concentrations (in words): HepG2, <10 µM
Description: (§5) The tested compounds 2 and 12 were evaluated in terms of cytotoxicity against the HepG2 cell line to assess their hepatotoxic potential (Figure 9). […].
as §4
(§6) Figure 9 The effect of cytostatic drug doxorubicin and 2 (left), 12 (right) on hepatoma HepG2 cell line viability after 72 h of incubation at 37°, 5% CO2. The statistical significance (GraphPad Prism 8.0.1) was evaluated by a one–way ANOVA, followed by Bonferroni’s Comparison Test (* p < 0.05, ** p < 0.01, and **** p < 0.0001 compared with negative control DMSO 1% in growth media.

[3] = Hepatotoxicity: HepG2 cell line viability; format: cell-based; conditions: human, HepG2 cells; HepG2, 50 µM, 72 h incubation
Description: as §5, §4, §6

[4] = Metabolic stability in mouse liver microsomes (MLMs), UHPLC-MS; format: in vitro ADME; conditions: for Metabolic Pathway: metabolites M1, M2 ... in order, after incubation with MLMs; for remaining at 2 h: mouse, liver microsomes; for remaining at 2 h / % Remaining: original compound remaining after 2 h (120 min) incubation with MLMs
Description: It seems, however, that substituents at the B ring of the ligands have a more important role. […] The data correspond to our previous results, in which substituents at the B ring increased metabolic stability. Potential sites in the molecules sensitive to enzyme activity and leading to degradation were proposed using an in silico approach, also with MetaSite 6.0.1 (Figure 7).
as §4

5-HT1A receptor = target: T4, 5-HT1A receptor (Homo sapiens, UniProt P08908); assay: Radioligand binding assay, 5-HT1A receptor; conditions: mean ± SD, triplicate at 7 concentrations, Cheng-Prusoff; read-out: Affinity Ki 5-HT1AR
T4 construct: host or cells: cell membranes from cultured cells
T4 sequence (P08908 1-422): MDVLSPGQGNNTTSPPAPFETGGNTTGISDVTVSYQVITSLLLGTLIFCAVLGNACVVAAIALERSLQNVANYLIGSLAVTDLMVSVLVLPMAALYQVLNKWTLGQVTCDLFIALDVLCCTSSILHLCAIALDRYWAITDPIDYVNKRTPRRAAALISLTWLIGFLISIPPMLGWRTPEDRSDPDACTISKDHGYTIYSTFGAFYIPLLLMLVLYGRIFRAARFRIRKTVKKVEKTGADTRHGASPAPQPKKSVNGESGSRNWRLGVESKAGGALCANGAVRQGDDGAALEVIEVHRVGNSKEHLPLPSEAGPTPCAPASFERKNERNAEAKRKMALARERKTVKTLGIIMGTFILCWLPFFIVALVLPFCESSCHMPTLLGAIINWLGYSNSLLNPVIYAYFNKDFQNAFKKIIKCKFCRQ
Description: as §1, §2

D2 receptor = target: T5, D2 receptor (Homo sapiens, UniProt P14416); assay: Radioligand binding assay, D2 receptor; conditions: mean ± SD, triplicate at 7 concentrations, Cheng-Prusoff; read-out: Affinity Ki D2R
T5 construct: host or cells: cell membranes from cultured cells
Description: as §1, §2

Chain of CYP3A4 (P08684 whole entry): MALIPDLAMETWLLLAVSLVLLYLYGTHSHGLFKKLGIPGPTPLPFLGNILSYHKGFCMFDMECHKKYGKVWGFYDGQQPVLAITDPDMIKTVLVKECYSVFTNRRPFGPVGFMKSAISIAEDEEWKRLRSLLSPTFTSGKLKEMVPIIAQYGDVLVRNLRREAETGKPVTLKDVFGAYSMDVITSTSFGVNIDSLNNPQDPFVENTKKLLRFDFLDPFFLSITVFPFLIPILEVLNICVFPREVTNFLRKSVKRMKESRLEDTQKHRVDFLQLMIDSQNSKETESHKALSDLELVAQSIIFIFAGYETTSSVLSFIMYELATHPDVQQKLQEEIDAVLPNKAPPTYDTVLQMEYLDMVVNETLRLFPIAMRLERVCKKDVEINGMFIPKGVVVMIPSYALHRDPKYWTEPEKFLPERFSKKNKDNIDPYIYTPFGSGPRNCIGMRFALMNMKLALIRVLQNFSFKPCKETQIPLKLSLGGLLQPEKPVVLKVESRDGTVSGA
T1 sequence (P34969 1-432 limits assumed): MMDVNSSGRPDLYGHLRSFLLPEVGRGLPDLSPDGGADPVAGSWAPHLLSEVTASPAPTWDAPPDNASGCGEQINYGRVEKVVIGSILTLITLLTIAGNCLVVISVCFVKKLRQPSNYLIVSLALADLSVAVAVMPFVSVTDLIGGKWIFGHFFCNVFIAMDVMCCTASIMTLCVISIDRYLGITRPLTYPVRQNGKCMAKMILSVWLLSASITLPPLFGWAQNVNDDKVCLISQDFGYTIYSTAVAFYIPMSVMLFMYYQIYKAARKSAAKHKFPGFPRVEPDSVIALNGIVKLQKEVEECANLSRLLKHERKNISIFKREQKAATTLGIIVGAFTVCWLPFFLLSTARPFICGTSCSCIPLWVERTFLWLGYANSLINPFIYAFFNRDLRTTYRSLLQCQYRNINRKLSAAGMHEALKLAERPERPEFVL
T3 sequence (P50406 whole entry): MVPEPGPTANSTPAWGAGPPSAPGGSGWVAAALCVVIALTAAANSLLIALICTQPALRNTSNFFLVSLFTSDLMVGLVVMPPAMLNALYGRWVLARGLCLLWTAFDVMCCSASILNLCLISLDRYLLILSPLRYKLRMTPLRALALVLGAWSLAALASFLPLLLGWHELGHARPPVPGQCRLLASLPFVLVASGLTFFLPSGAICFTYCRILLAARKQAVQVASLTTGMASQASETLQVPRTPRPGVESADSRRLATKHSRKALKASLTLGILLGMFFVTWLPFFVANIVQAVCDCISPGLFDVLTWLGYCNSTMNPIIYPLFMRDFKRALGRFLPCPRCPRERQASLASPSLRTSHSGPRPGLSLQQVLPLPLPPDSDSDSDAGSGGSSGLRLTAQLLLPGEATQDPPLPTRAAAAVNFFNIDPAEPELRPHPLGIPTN
T2 sequence (P28223 whole entry): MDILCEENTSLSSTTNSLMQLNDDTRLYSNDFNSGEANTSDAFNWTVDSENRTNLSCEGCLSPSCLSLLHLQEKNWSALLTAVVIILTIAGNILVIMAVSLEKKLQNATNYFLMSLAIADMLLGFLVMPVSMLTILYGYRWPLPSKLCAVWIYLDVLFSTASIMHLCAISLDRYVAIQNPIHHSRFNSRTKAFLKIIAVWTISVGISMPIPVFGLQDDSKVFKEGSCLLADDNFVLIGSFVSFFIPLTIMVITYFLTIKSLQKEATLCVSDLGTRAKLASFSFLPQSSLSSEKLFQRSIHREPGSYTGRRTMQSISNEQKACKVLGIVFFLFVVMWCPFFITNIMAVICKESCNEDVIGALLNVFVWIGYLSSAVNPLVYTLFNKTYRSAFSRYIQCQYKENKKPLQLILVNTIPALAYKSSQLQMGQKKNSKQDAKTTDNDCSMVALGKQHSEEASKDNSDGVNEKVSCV
T5 sequence (P14416 whole entry): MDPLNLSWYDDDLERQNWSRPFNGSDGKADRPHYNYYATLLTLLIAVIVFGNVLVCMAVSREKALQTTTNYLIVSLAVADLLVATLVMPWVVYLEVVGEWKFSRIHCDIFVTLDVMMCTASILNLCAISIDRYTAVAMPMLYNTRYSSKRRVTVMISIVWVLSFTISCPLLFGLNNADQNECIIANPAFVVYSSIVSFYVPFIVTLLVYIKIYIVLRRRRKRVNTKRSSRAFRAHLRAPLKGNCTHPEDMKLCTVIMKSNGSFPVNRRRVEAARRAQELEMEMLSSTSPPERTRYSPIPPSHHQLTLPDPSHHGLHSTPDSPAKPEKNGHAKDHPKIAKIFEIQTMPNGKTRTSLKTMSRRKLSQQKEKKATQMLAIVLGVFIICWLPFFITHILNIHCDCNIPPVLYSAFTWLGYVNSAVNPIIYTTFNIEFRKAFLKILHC

Cl.Nc1nc(NCCc2ccccc2)nc(NCCc2c[nH]c3ccc(F)cc23)n1 [Compound 2, N^2-(2-(5-Fluoro-1H-Indol-3-yl)ethyl)-N^4-Phenethyl-1,3,5-Triazine-2,4,6-Triamine Hydrochloride]
Ki (5-HT7 receptor): 8 ± 2 nM | Ki (5-HT2A receptor): 413 ± 67 nM | concentration at which pericardial edema (PE) was observed (Danio rerio [1]): 5000 ng/mL | concentration found cardiotoxic (heart rate measurement) (Danio rerio [1]): 5000 ng/mL | inhibition activity toward CYP3A4 (in words) (CYP3A4): no or slight inhibition activity | %CYP3A4 activity (CYP3A4; compound at 10 µM): 50% | %CYP3A4 activity (CYP3A4; compound at 25 µM): < 15% | Ki (5-HT6 receptor): 505 ± 61 nM | LD50 (mortality) (Danio rerio [2]): 4.869 µg/mL | cell viability (in words) (HepG2 cell line): practically no viable | effect on HepG2 cells at lower concentrations (in words) (HepG2 cell line): proliferative activity | viability at 72 h, 50 µM [3]: 35% | Metabolic Pathway [4]: hydroxylation ketone formation double hydroxylation dehydrogenation dehydrogenation double hydroxylation hydroxylation ketone formation and hydroxylation hydroxylation | remaining at 2 h [4]: 20% | % Remaining [4]: 19.79% | Ki (5-HT1A receptor): 13900 nM

Cl.Nc1nc(NCCNc2ccc(F)cc2)nc(NCCc2c[nH]c3ccccc23)n1 [Compound 12, N^2-(2-(1H-Indol-3-yl)ethyl)-N^4-(2-((4-Fluorophenyl)amino)ethyl)-1,3,5-Triazine-2,4,6-Triamine Hydrochloride]
activity with respect to 5-HT7R (in words) (5-HT7 receptor; SAR discussion of radioligand data): active | Ki (5-HT7 receptor): 18 ± 3 nM | Ki (5-HT2A receptor): 3570 ± 491 nM | concentration at which pericardial edema (PE) was observed (Danio rerio [1]): 7500 ng/mL | concentration found cardiotoxic (heart rate measurement) (Danio rerio [1]): 7500 ng/mL | inhibition activity toward CYP3A4 (in words) (CYP3A4): no or slight inhibition activity | %CYP3A4 activity (CYP3A4; compound at 10 µM): 20% | %CYP3A4 activity (CYP3A4; compound at 25 µM): < 15% | Ki (5-HT6 receptor): 1630 ± 301 nM | LD50 (mortality) (Danio rerio [2]): 16.95 µg/mL | Ki (D2 receptor): 3000 ± 679 nM | cell viability (in words) (HepG2 cell line): practically no viable | effect on HepG2 cells at lower concentrations (in words) (HepG2 cell line): proliferative activity | viability at 72 h, 50 µM [3]: 20% | Metabolic Pathway [4]: decomposition hydroxylation dehydrogenation dehydrogenation double hydroxylation hydroxylation dehydrogenation | remaining at 2 h [4]: 29% | % Remaining [4]: 29.12% | Ki (5-HT1A receptor): 43300 nM
